In patent US7078499B2, “Nucleotide analogues comprising a reporter moiety and a polymerase enzyme blocking moiety” (GE Healthcare UK Limited, priority 2000, dated 2006):

Assays:
Format in all cases: biochemical
T7 DNA polymerase = target: T1, T7 DNA polymerase (Escherichia phage T7, UniProt P00581); assay: Mesophilic DNA polymerase primer extension, T7; set-up: key to result of incorporation (termination / further chain extension): T: Incorporation results in termination; E: Incorporation permits further chain extension; T/E: Predominant product is primer extended by one base, but evidence of some further extension also observed; settings: DNA template, 37° C. for 20–40 minutes; for primer extended by at least one base within assay time (grade): TTP replaced entirely by test compound
T1 construct: purchased AP Biotech
T1 sequence (P0AA25 2-109): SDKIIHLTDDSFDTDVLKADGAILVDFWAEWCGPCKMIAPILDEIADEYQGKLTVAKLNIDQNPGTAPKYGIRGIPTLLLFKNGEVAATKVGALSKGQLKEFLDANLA
T1 sequence (P00581 whole entry): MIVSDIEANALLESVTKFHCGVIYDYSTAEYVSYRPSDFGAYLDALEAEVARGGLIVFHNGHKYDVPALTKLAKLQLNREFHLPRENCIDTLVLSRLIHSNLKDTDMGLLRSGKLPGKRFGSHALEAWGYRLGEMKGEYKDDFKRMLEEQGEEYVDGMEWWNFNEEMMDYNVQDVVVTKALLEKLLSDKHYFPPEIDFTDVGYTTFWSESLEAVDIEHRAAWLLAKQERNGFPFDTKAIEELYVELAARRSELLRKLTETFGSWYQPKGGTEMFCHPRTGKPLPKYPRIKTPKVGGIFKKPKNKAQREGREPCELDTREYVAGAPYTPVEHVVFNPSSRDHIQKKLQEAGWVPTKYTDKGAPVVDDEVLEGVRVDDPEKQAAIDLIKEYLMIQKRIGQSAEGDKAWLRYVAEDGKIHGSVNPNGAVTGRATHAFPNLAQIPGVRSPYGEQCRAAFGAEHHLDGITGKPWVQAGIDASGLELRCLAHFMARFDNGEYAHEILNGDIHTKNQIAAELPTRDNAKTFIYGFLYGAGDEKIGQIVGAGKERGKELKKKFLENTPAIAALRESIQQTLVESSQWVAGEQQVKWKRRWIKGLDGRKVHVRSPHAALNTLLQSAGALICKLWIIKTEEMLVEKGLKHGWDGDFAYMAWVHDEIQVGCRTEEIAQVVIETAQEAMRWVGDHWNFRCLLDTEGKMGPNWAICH
Method: (§1) DNA polymerase assays were performed using Sequence 1 as primer and Sequence 2 as template. • Sequence 1 5′[Cy3]TAACTCATTAACAGGATC 3′ • Sequence 2 5′AT TCGCGGTATTCTGGTATGAAGCTTTTAGATCCTGTTAATGAGTTA GTA3′
(§2) The template (Sequence 2) was designed such that the base (underlined) immediately adjacent to the 3′ end of the hybridised primer is complementary to the nucleotide test compound. Nucleotide test compounds were compounds (6) (4′-C-(glycylaminomethyl)thymidine triphosphate), (8) (4′-C-(N-trifluoroacetyaminomethyl)thymidine triphosphate) and (9) (4′-C-(aminomethyl)thymidine triphosphate) as described above.
(§3) Primer extension reactions were performed using the above primers in the presence of 40 to 80 μM of nucleotide triphosphates. Positive control reactions contained all four native nucleotide triphosphates. For the other reactions the TTP was replaced with either a 2:1 ratio of […] for the terminator control, or entirely by the test compound The enzymes were used at a final concentration of 0.175 units/μl and a magnesium ion concentration of 2.5 mM in buffers supplied by the manufacturer. The primer and template concentrations were 0.5 pmol/μl and 2 pmol/μl respectively.
(§4) Extension reactions preformed with mesophilic polymerases were carried out by mixing all the components of the reaction except the enzyme and heating to 70° C. for 5 min. After the reactions had cooled to room temperature 0.175 units of the enzyme were added and the reactions heated to 37° C. for 20–40 minutes. The following enzymes were used: T7 DNA polymerase (T7); Sequenase 2™ (Seq); Klenow fragment of DNA polymerase 1 (Klen); phi-29 DNA polymerase (Phi-29); T4 DNA polymerase (T4) (all from AP Biotech) and Bst DNA polymerase (Bst) (Cambio Ltd).
(§5) The reactions were stopped by adding a 0.5 volume aliquot of 80% formamide containing 0.1% (w/v) bromophenol blue and 0.1% (w/v) cresol blue. The reaction products were separated by denaturing gel electrophoresis at a constant power of 45 W on 16% polyacrylamide gels containing 50% urea.
(§6) Gels were scanned for Cy3 fluorescence on a Molecular Dynamics Fluorimager and the data analysed using Molecular Dynamics ImageQuant 5 software.
(§7) The incorporation of a test nucleotide triphosphate results in the appearance on a polyacrylamide gel of a single band corresponding to a single base extension product. If, however, the enzyme adds additional bases then further bands would be observed that corresponded to either the full-length product or positions of other complementary bases in the template.

Sequenase 2™ = target: T2, Sequenase 2™ (Escherichia phage T7, UniProt P00581, DEL118-145); assay: Mesophilic DNA polymerase primer extension, Seq; set-up: key to result of incorporation (termination / further chain extension): T: Incorporation results in termination; E: Incorporation permits further chain extension; T/E: Predominant product is primer extended by one base, but evidence of some further extension also observed; settings: DNA template, 37° C. for 20–40 minutes; for primer extended by at least one base within assay time (grade): TTP replaced entirely by test compound
T2 construct: purchased AP Biotech
T2 sequence (P0AA25 2-109, stated change not applied): as the sequence (P0AA25 2-109) above
T2 sequence (P00581 other isoform, or with tags, fused parts or gaps DEL118-145): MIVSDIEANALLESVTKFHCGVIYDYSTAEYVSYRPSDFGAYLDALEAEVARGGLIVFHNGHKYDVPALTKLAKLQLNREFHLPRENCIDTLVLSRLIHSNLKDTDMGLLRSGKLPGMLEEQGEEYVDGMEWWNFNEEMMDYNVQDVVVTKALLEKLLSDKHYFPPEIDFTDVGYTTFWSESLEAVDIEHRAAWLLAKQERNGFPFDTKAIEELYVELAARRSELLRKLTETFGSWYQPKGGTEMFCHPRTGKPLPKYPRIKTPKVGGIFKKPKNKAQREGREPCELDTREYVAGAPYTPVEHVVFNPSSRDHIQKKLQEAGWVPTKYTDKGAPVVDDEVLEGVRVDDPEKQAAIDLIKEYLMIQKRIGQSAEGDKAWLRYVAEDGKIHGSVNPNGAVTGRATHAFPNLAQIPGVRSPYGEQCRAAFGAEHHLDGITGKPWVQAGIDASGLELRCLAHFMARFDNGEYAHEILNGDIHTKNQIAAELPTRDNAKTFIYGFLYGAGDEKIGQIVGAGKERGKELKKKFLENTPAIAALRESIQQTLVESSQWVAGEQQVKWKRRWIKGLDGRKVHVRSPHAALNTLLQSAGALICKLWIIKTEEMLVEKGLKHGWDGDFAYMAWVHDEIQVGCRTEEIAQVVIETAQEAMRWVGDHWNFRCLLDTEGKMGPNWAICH
Method: DNA polymerase assays were performed using Sequence 1 as primer and Sequence 2 as template. • Sequence 1 5′[Cy3][…] 3′ • Sequence 2 5′AT […]3′
as §2, §3, §4, §5, §6, §7

MuLV RT = target: T3, MuLV RT (Moloney murine leukemia virus, UniProt P03355); assay: Mesophilic reverse transcriptase reaction, MuLV RT; set-up: key to result of incorporation (termination / further chain extension): T: Incorporation results in termination; E: Incorporation permits further chain extension; T/E: Predominant product is primer extended by one base, but evidence of some further extension also observed; settings: RNA template, final enzyme concentration of 4 units/μl
T3 construct: MuLv Reverse transcriptase or HIV reverse transcriptase; purchased APBiotech
Method: as §1, §2, §3, §4
(§8) Reverse transcriptase reactions were performed essentially as described above for thermophilic and mesophilic enzymes. The template for these reactions was the RNA equivalent of sequence 2. All the thermophilic enzymes were assayed in Tth reaction buffer (Cambio Ltd, Cambridge UK) containing 2.5 mM Manganese ions. The following enzymes were used: Thermosequenase (TS1); Thermosequenase II (TSII); delta Tts DNA polymerase (deltaTts); delta Tts D DNA polymerase (deltaTtsD) (all from APBiotech); Retrotherm reverse transcriptase (Retroth) (Cambio Ltd); Tth DNA polymerase (Tth) (Cambio Ltd.).
Mesophilic reverse transcriptases (AMV RT; MuLV RT; SAV RT and HIV RT all from APBiotech) were assayed in their respective buffers with a final enzyme concentration of 4 units/μl.
as §5, §6, §7

[1] = tested on: delta Tts D DNA polymerase; assay: Thermostable polymerase under reverse transcription conditions, delta TtsD; set-up: key to result of incorporation (termination / further chain extension): T: Incorporation results in termination; E: Incorporation permits further chain extension; T/E: Predominant product is primer extended by one base, but evidence of some further extension also observed; key to primer extended by at least one base within assay time (grade): −: No extension within assay time; +/−: up to 25% of primer extended by at least one base within assay time; +: up to 50% of primer extended by at least one base within assay time; ++: up to 75% of primer extended by at least one base within assay time; +++: essentially all primer extended by at least one base within assay time; settings: RNA template, 2.5 mM Manganese ions; for primer extended by at least one base within assay time (grade): Tth reaction buffer
Method: as §1, §2, §3
Extension reactions with thermophilic enzymes were performed by initially denaturing the fully assembled reactions at 70° C. for 5 min. followed by 45° C. for 20–40 minutes. The following enzymes were used: Taq DNA polymerase (Taq); Thermosequenase (TS); Thermosequenase II (TSII); Thermosequenase E (TSE), Tfl DNA polymerase (Tfl); Tth DNA polymerase (Tth), deltaTts DNA polymerase (deltaTts), deltaTts D DNA polymerase (dettaTTSD) (all from APBiotech); Pfu DNA polymerase (Pfu) (Stratagene Ltd); Vent™ DNA polymerase (Vent) (New England Biolabs).
as §8, §5, §6, §7

Row | Molecule | result of incorporation (termination / further chain extension) (T7 DNA polymerase) | primer extended by at least one base within assay time (grade) (T7 DNA polymerase) | result of incorporation (termination / further chain extension) (Sequenase 2™) | primer extended by at least one base within assay time (grade) (Sequenase 2™) | primer extended by at least one base within assay time (grade) (MuLV RT) | result of incorporation (termination / further chain extension) (MuLV RT) | result of incorporation (termination / further chain extension) [1] | primer extended by at least one base within assay time (grade) [1]
1 | 4′-C-(Glycylaminomethyl)thymidine triphosphate [compound (6)] | T/E | +/− (up to 25% of primer extended by at least one base within assay time) | T | + (up to 50% of primer extended by at least one base within assay time) | ++ (up to 75% of primer extended by at least one base within assay time) | E | E | +++
2 | Cc1cn([C@H]2C[C@H](O)[C@@](CNC(=O)C(F)(F)F)(COP(=O)(O)OP(=O)(O)OP(=O)(O)O)O2)c(=O)[nH]c1=O [compound (8), 4′-C-(N-trifluoroacetylaminomethyl)thymidine triphosphate] | T/E | +/− (up to 25% of primer extended by at least one base within assay time) | T | + (up to 50% of primer extended by at least one base within assay time) | ++ (up to 75% of primer extended by at least one base within assay time) | E | E | +++
3 | 4′-C-(Aminomethyl)thymidine triphosphate [compound (9)] | T/E | +/− (up to 25% of primer extended by at least one base within assay time) | T | + (up to 50% of primer extended by at least one base within assay time) | ++ (up to 75% of primer extended by at least one base within assay time) | E | E | +++
